We go through 80 molecules from the METLIN SMRT retention time set (Domingo-Almenara et al. 2019).

The series can be described thus: gradient 5% acetonitrile 3 min, to 50% in 2 min, to 85% in 15 min, held 3 min, 100 µL/min. To be noted: column: Zorbax Extend-C18 2.1 x 50 mm; eluents: water / acetonitrile, 0.1% formic acid. Summed up:
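Using water and acetonitrile that each contained 0.1% formic acid, mixtures of ~100 pure standards were separated at 100 μL/min on a Zorbax Extend-C18 column (2.1 × 50 mm, 1.8 μm). The HPLC fed a quadrupole time-of-flight mass spectrometer working in positive and negative ionization mode, with dead and dwell volumes of 40 μL and 900 μL. Data were acquired over 3 months. Retention time was read from computationally picked adduct peaks after manual inspection of each.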
As for `O=C(c1noc2c1CCCC2)N1CCN(c2ccccn2)CC1`, the RP-LC retention time turned out to be 613 s.
With `COc1ccc(CN2C(=O)COC[C@H]2C(=O)NC2CC2)c(OC)c1` the figure was 643 s.
On to `CCCCC(CC)C(=O)Nc1nc(-c2ccc(F)cc2)cs1` (stereo not given), for which the RP-LC retention time was found to be 1190 s.
With `CCC(c1cccs1)N1C(=O)[C@H]2CN(S(=O)(=O)c3cccc(OC)c3)C[C@H]2C1=O` (stereo not given in full), the RP-LC retention time was determined as 1010 s.
With `Cc1nn(CC(=O)NC2CC2)c(=O)c2c(-n3cccc3)n(-c3cccc(F)c3)nc12` the figure was 828 s; with `Cc1ccc(Nc2c(-c3cccc(Br)c3)nc3c(C)cccn23)cc1`, 843 s; with `Cc1ccc(C(=O)CC2(O)C(=O)Nc3ccc(F)cc32)cc1C` (stereo not given), 776 s.
With `O[C@@H]1C[C@@H](c2nnc3n2CCN(Cc2cccc(F)c2)C3)N(Cc2cccnc2)C1` the figure was 588 s; with `Cc1cccc(-c2nocc2CCC(=O)O)c1`, 758 s; with `Cc1cc(NS(=O)(=O)c2ccc(Nc3nc(-c4ccc(C(C)C)cc4)cs3)cc2)no1`, 1160 s.
With `Cc1nc(-c2ccc(C(=O)NC3CCCCC3)cc2)cs1` the figure was 900 s; with `CCN1c2cc(F)ccc2C(=O)NC12CCN(C(=O)c1ccc3c(c1)OCO3)CC2`, 771 s.
In turn, `O=C1CCCc2cc(S(=O)(=O)N3CCC(C(=O)N4CCCCCC4)CC3)ccc2N1` displayed an RP-LC retention time of 716 s.
With `CN(CC(=O)O)c1nc2c(Cl)cc(Cl)cc2s1` the figure was 888 s; with `CCc1nc2cc(-c3noc(-c4cccc(F)c4)n3)ccc2o1`, 1230 s.
`Cn1c(=O)c(N2CCCC(C(=O)NCc3ccco3)C2)nc2cccnc21` (stereo not given) registered an RP-LC retention time of 788 s.
With `Cc1sc(-c2noc(C3CC3)n2)cc1S(=O)(=O)N1CCC(C(=O)N2CCCCCC2)CC1` the figure was 1050 s; with `CCN1c2cc(F)ccc2C(=O)NC12CCN(C(=O)c1cccc(C)c1)CC2`, 824 s; with `Cc1cc(-c2ccc(S(=O)(=O)N3CCN(c4ccccn4)CC3)c(C)c2)on1`, 697 s.
For `Cc1ccc(-c2csc(NC(=O)c3ccccc3Br)n2)cc1`, the RP-LC retention time was 1080 s.
With `CN1C(=O)c2cc(C(=O)Nc3ccccc3Cl)nn2CC1(C)C(=O)NC1CCCCC1` (stereo not given) the figure was 887 s.
On to `CN1C(=O)COc2ccc(-c3csc(NC(=O)C4CCCCC4)n3)cc21`, for which the RP-LC retention time stood at 988 s.
Regarding `O=S(=O)(c1ccc(Br)cc1)N1CCc2nc(-c3ccccc3)ncc2C1`, the RP-LC retention time stood at 1120 s.
With `COc1ccc(/C=C2\CCc3ccccc3C2=O)cc1OC` the figure was 994 s.
Turning to `O=c1c(NCCc2ccncc2)nc2ccncc2n1Cc1ccccc1`, the RP-LC retention time is 553 s.
With `Cn1c(C(=O)NCc2ccccc2Cl)cc2ccncc21` the figure was 643 s; with `Cc1ccccc1Cn1cc(-c2ccncc2)cc1C(=O)Nc1ccc2c(c1)OCO2`, 749 s.
With `O=C1C(N2CCN(S(=O)(=O)c3ccccc3Cl)CC2)CCN1CCc1ccccc1` (stereo not given) the figure was 672 s; with `CC1CCCN(CCCNC(=O)CCC(=O)N2CCc3c(c(C(=O)N4CCCC4)nn3C)C2)C1` (stereo not given), 579 s.
With `Cc1cc2c(cc1CNC(=O)Cn1cc(C(=O)c3ccco3)c3ccccc31)OCCCO2` the figure was 837 s; with `Cc1cc(=O)n(CC(=O)Nc2ccc(Br)cc2)c(N2CCCC2)n1`, 666 s; with `COc1ccc(NC(=O)Cn2nc3nc(N4CCCC(C)C4)ccn3c2=O)cc1OC` (stereo not given), 844 s.
`Cc1ccc(CN2C(=O)NC3(CCN(C(=O)c4ccsc4)CC3)C2=O)cc1` registered an RP-LC retention time of 778 s.
With `COc1ccc(-c2noc(CSc3nccn3-c3ccc(C)cc3)n2)cc1` the figure was 926 s.
With `O=S(=O)(Cc1cccc(Cl)c1)N1CCc2nc(-c3ccc(F)cc3)ncc2C1`, the RP-LC retention time was 1110 s.
Turning to `CCn1c(N2CCCC(C(=O)NCc3ccccc3F)C2)cc(=O)n(C)c1=O` (stereo not given), the RP-LC retention time is 776 s.
With `Cc1cccc(C(=O)N2C[C@H](c3nc(-c4ccccc4)no3)[C@@H](C)C2)c1` the figure was 731 s; with `O=C(NCC1CN(CC2CC2)CC12CCCCC2)Nc1cccc(Cl)c1` (stereo not given), 741 s; with `O=c1c2ccccc2n(Cc2nc(-c3ccc(Cl)cc3)no2)c(=O)n1CC1CCCO1` (stereo not given), 1080 s.
With `Cc1cc(Cl)ccc1S(=O)(=O)N1CCn2c(nn(CC3CC3)c2=O)C1` the figure was 872 s; with `COCCCNC(=O)C1CCCN(c2nnc3ccccn23)C1` (stereo not given), 529 s.
Molecule `CCn1c(=O)n(CC(=O)N2CCN(C)CC2)c(=O)c2cnc(-c3ccc(Cl)cc3)nc21` came in with an RP-LC retention time of 696 s.
With `Cc1occc1-c1nnc2sc(COc3ccc(Cl)cc3)nn12` the figure was 1000 s.
For the molecule `COC(=O)c1ccccc1Nc1c(-c2cccc(O)c2)nc2cnccn12`, the RP-LC retention time turned out to be 792 s.
In turn, `CCCNC(=O)C1CCCN(c2ccc(SCC(=O)Nc3ccc(F)cc3F)nn2)C1` (stereo not given) yielded an RP-LC retention time of 657 s.
Molecule `COc1ccc(-c2nnc(Cc3nc(-c4ccc5c(c4)OCO5)no3)o2)cc1` registered an RP-LC retention time of 916 s.
Regarding `O=C(Cc1c[nH]c2ncccc12)NCC1CCCCC1`, the RP-LC retention time turned out to be 644 s.
With `COc1ccc(S(=O)(=O)NC2CCN(C(=O)C3CCC3)CC2)cc1` the figure was 750 s; with `Cc1ccc(-c2csc(NC(=O)C3CCC3)n2)cc1C`, 1100 s; with `COc1ccc(C2c3[nH]c4ccccc4c3CCN2C(=O)c2ccncc2)cc1` (stereo not given), 877 s.
With `CCCNC(=O)c1cnn2c3c(cnc12)CCCCCC3` the figure was 976 s.
With `Nc1nc(S(=O)(=O)Cc2ccccc2)ns1` the figure was 637 s; with `O=c1ccc(-c2ccc(F)cc2)nn1CCc1nc(-c2ccc3c(c2)OCO3)no1`, 933 s; with `CC(C)CCNC(=O)CN1C(=O)C2CCCCN2c2ccc(C(=O)N(C)C)cc21` (stereo not given), 745 s.
`CC(C)NC(=O)c1ccc(OCC2CCN(C(=O)c3ccccc3)CC2)cc1` gave an RP-LC retention time of 828 s.
With `Cc1cc(-n2nnc(C(=O)O)c2-c2ccccn2)ccc1F` the figure was 642 s; with `Cc1ccc(NS(=O)(=O)c2ccc(-c3c(C)noc3C)cc2)cc1Cl`, 1040 s.
Consider `Cc1nc(N2CCOCC2)c2c(C(=O)Nc3cccc(C(F)(F)F)c3)c(C)oc2n1`, for which the RP-LC retention time was 955 s.
Molecule `COc1ccc(C(=O)N[C@@H]2CCC[C@@H]2C(=O)N(C)C)cn1` displayed an RP-LC retention time of 595 s.
With `CCOCC(=O)N1CCc2c(c(C(=O)N3CCCC(C(=O)Nc4ccccc4)C3)nn2C)C1` (stereo not given) the figure was 668 s.
Take `COc1ccc(C)cc1NC(=O)C1CCN(S(=O)(=O)c2cc(C(=O)N3CCCC3)n(C)c2)CC1`: the RP-LC retention time is 809 s.
In the case of `O=C(NCc1noc(C2CCCC2)n1)C1CCCCC1`, the RP-LC retention time was 811 s.
Take `CC1(C(=O)NCc2ccccc2)CCCN(S(=O)(=O)c2ccccc2)C1` (stereo not given): the RP-LC retention time stood at 883 s.
With `Cc1ccc(NC(=O)CSc2ccc(N3CCCC(C(=O)NC4CC4)C3)nn2)cc1C` (stereo not given) the figure was 628 s; with `COCCn1cc2c3c(cccc31)CN(C(=O)Nc1cc(Cl)ccc1OC)CC2`, 1070 s; with `O=C(Nc1nccs1)C1CCCN(c2ccc3cc(S(=O)(=O)N4CCCC4)ccc3n2)C1` (stereo not given), 693 s.
With `O=c1ccc(-c2ccccc2)nn1CCc1nc(-c2ccncc2)no1` the figure was 727 s; with `O=C(NCc1ccccc1C(F)(F)F)c1cn2nc(Cl)ccc2n1`, 922 s.
With `CCCOc1ccc(C2NC(=O)NC(C)=C2C(=O)OC2CCCC2)cc1OC` (stereo not given) the figure was 857 s; with `c1cc(-c2nc(-c3ccc4c(c3)ncn4CCN3CCCCC3)no2)cs1`, 609 s.
As for `CCCOc1nccnc1N1CCC(NC(=O)Cc2cccnc2)C1` (stereo not given), the RP-LC retention time was found to be 671 s.
For `COCC(=O)N(CC(=O)N1CCc2sccc2C1COc1ccc(Cl)c(C)c1)C1CC1` (stereo not given), the RP-LC retention time was found to be 960 s.
Turning to `CC(NC(=O)C1CCN(S(=O)(=O)c2ccc(Cl)cc2)CC1)C(=O)N1CCCc2ccccc21` (stereo not given), the RP-LC retention time was 945 s.
With `CCOC(=O)c1noc2nc(C)nc(Nc3ccc(OC)cc3)c12` the figure was 938 s.
For `c1ccc2c(c1)[nH]c1c3ccccc3sc21`, the RP-LC retention time was found to be 1160 s.
Consider `Cc1ccc2c(C(=O)N3CCN(C4CCCCC4)CC3)cc(NC(=O)C3CCC3)cc2n1`, for which the RP-LC retention time came out at 556 s.
For the molecule `Cc1cccc(Nc2nnc(CC(=O)Nc3cc(F)ccc3Cl)s2)c1`, the RP-LC retention time was found to be 872 s.
With `CCSc1nnc(NC(=O)c2nn(-c3ccc(F)cc3)cc2OC)s1` the figure was 881 s.
`Cc1ccc(S(=O)(=O)N2CCc3c(c(-c4nnc(-c5ccccc5F)o4)nn3C)C2)cc1` had an RP-LC retention time of 955 s.
`O=C(Cn1nc2nc(N3CCCC3)ccn2c1=O)N1CCN(c2ccc(F)cc2)CC1` displayed an RP-LC retention time of 661 s.
